Results taken from PubChem BioAssay (NCI).
Values joined by “and” are separate entries in the source; they are usually repeats but may differ in a detail not shown here. Identical values can stand only once.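 Each compound was tested at five concentrations against cells in 96-well plates for 48 hours. The concentration for 50% growth inhibition is given as GI50. TGI: total growth inhibition.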

Columns and labels:
Test in all cases: inhibition of tumour cell growth, NCI panel, 48 h
786-0 renal = tested on: 786-0 renal
HT29 colon = tested on: HT29 colon
NCI-H226 lung = tested on: NCI-H226 lung
NCI-H522 lung = tested on: NCI-H522 lung
PC-3 prostate = tested on: PC-3 prostate
RPMI-8226 leukemia = tested on: RPMI-8226 leukemia
SF-539 CNS = tested on: SF-539 CNS
SK-OV-3 ovarian = tested on: SK-OV-3 ovarian
SNB-19 CNS = tested on: SNB-19 CNS
SW-620 colon = tested on: SW-620 colon

Row | Structure (SMILES) | GI50 (786-0 renal) | TGI (786-0 renal) | GI50 (HT29 colon) | TGI (HT29 colon) | GI50 (NCI-H226 lung) | TGI (NCI-H226 lung) | GI50 (NCI-H522 lung) | TGI (NCI-H522 lung) | GI50 (PC-3 prostate) | TGI (PC-3 prostate) | GI50 (RPMI-8226 leukemia) | TGI (RPMI-8226 leukemia) | GI50 (SF-539 CNS) | TGI (SF-539 CNS) | GI50 (SK-OV-3 ovarian) | TGI (SK-OV-3 ovarian) | GI50 (SNB-19 CNS) | TGI (SNB-19 CNS) | GI50 (SW-620 colon) | TGI (SW-620 colon)
1 | O=C(NCCCO)c1cc(Cl)ccc1O | 3.14 µM | 11.8 µM | 2.16 µM | 10.8 µM | 3.27 µM | 13.4 µM | 1.12 µM | 4.77 µM | 2.06 µM | 10.2 µM | 0.704 µM | 2.68 µM | 4.85 µM | 17.5 µM | 3.31 µM | 12.3 µM | 2.26 µM | 17.6 µM | 2.94 µM | 14.3 µM
2 | COc1ccc2ccccc2c1C1NC(=O)c2ccccc2N1 (configuration not stated) | – | > 38 µM | – | – | – | 13.4 µM | – | > 25.6 µM | – | 3.19 µM | – | 8.06 µM | – | 5.78 µM | – | 9.29 µM | – | > 100 µM | – | > 37.5 µM
3 | Oc1ccc(-c2nc3ccccc3s2)cc1CN(Cc1ccccn1)Cc1ccccn1 | 0.353 µM | 10.1 µM | 6.74 µM | 19.9 µM | 0.21 µM | 3.5 µM | 2.83 µM | 14.2 µM | 1.09 µM | 21.8 µM | 2.08 µM | 16.6 µM | 1.42 µM | 6.75 µM | 1.35 µM | 43.5 µM | 1.51 µM | 20.8 µM | 1.06 µM | 14.7 µM
4 | Cc1nnc(-c2cccc(-c3ccc(C(=O)NCC4CC4)cc3)c2)o1 | > 25 µM | > 25 µM | > 25 µM | > 25 µM | > 25 µM | > 25 µM | > 25 µM | > 25 µM | > 25 µM | > 25 µM | > 25 µM | > 25 µM | > 25 µM | > 25 µM | > 25 µM | > 25 µM | > 25 µM | > 25 µM | > 25 µM | > 25 µM
5 | CC(C)=CCC/C(C)=C/CC/C(C)=C/CSc1ccccc1C(=O)O | 23.1 µM | 78.9 µM and 32.1 µM | 33.5 µM | > 78.5 µM and 38.1 µM | 19.9 µM | 46.2 µM and 44.1 µM | 21.6 µM | 52 µM | 27 µM | > 59.3 µM and 34.1 µM | 25.2 µM | 73.1 µM and 81.4 µM | 19.9 µM | 42.2 µM and 33.9 µM | 37.6 µM | > 100 µM and 62.8 µM | 39.7 µM | > 100 µM and 41.1 µM | 20.1 µM | 42.5 µM and > 100 µM
6 | COc1cc(-c2cc(O)c(-c3ccc4ccccc4n3)c(=O)[nH]2)cc(OC)c1OC | – | > 69.6 µM | – | > 73.1 µM | – | > 77.6 µM | – | 40.8 µM | – | > 100 µM | – | > 95.3 µM | – | 74.5 µM | – | > 73.2 µM | – | > 100 µM | – | 66.1 µM
7 | C[As](C)SCC(COC(=O)C(Cl)c1ccccc1)OC(=O)C(Cl)c1ccccc1 (configuration not stated) | 0.884 µM | 8.05 µM | 0.754 µM | > 100 µM | 20.1 µM | 41.8 µM | 0.361 µM | > 38.8 µM | 0.74 µM | 19.4 µM | 0.299 µM | 1.37 µM | 0.968 µM | 3.43 µM | 2.63 µM | > 54.9 µM | 14.5 µM | 50 µM | 0.491 µM | 28.2 µM
8 | Oc1ccc(C(c2ccc(O)cc2)c2ccc(O)cc2)cc1 | – | 34.8 µM | – | 41.6 µM | – | 67.3 µM | – | 32.9 µM | – | 66.5 µM | – | 56.8 µM | – | 46 µM | – | 42 µM | – | 66.1 µM | – | 88.1 µM
9 | Nc1c(C(=O)Nc2cccc(F)c2)sc2nc3c(cc12)C(=O)CCC3 | 0.595 µM | > 100 µM | 0.307 µM | > 100 µM | > 90.1 µM | > 100 µM | 0.371 µM | > 100 µM | 0.347 µM | > 100 µM | > 34.5 µM | > 100 µM | 0.287 µM | > 100 µM | 0.436 µM | > 100 µM | 29.5 µM | > 100 µM | 0.35 µM | > 100 µM
10 | Cn1cnc([N+](=O)[O-])c1Sc1nc(N)nc2c1ncn2C1CC(O)C(CO)O1 (configuration not stated) | – | > 100 µM | – | > 100 µM | – | 98.2 µM | – | 14.4 µM | – | > 100 µM | – | 36.2 µM | – | > 100 µM | – | > 79.1 µM | – | > 100 µM | – | > 100 µM
11 | Cc1csc(/C=C/C(=O)c2nnn(-c3ccnc4c(C(F)(F)F)cccc34)c2C)c1 | > 100 µM | > 100 µM | 27 µM | > 100 µM | 53.8 µM | > 100 µM | 26.4 µM | > 100 µM | 29.7 µM | > 100 µM | 23.6 µM | > 100 µM | > 100 µM | > 100 µM | 89.1 µM | > 100 µM | 72.8 µM | > 100 µM | > 100 µM | > 100 µM
12 | CCC(=C/[C@H](C)C/C=C/C(C)=C/[C@@H](C)C(=O)[C@@H](C)[C@H](O)[C@@H](C)CC)/C=C/[C@@H]1OC(=O)C=C[C@H]1C | < 0.01 µM | < 0.01 µM | < 0.01 µM | 1.4 µM | < 0.01 µM | 0.0539 µM | < 0.01 µM | < 0.01 µM | < 0.01 µM | 1.52 µM | < 0.01 µM | < 0.01 µM | < 0.01 µM | – | < 0.01 µM | < 0.0115 µM | < 0.01 µM | – | < 0.01 µM | 1.43 µM
13 | O=Nc1ccc(NO)c2ccccc12 | 18.6 µM | 33.1 µM | 5.96 µM | 24.7 µM | 16.8 µM | 38.4 µM | 13.2 µM | 27 µM | 2.44 µM | 13.2 µM | 13.3 µM | 56.2 µM | 17.1 µM | 31.1 µM | 19.1 µM | 35.6 µM | 15.1 µM | 28.5 µM | 3.87 µM | 21.5 µM
14 | Cc1nc(-c2cn3c(n2)-c2ccc(-c4cnn(C(C)(C)C(N)=O)c4)cc2OCC3)n(C(C)C)n1 | 1.05 µM and 0.747 µM | > 100 µM | 0.0225 µM and 0.0401 µM | 17.1 µM and > 10 µM | 3.98 µM and 2.87 µM | 97.4 µM and > 10 µM | 5.73 µM and 6.01 µM | 26.7 µM and > 10 µM | 0.249 µM and 0.374 µM | > 75.3 µM | 5.9 µM and > 8.93 µM | 28.5 µM and > 10 µM | 0.654 µM and 0.493 µM | 6.13 µM and 5.83 µM | < 0.0126 µM and 0.0162 µM | 0.137 µM | 1.92 µM and 2.47 µM | > 100 µM | 8.08 µM and 3.48 µM | > 100 µM
